{"source": "ChEMBL document CHEMBL1157539", "about": "“Thousands of chemical starting points for antimalarial lead identification” (Nature, 2010)"}
{"test_system": "Plasmodium falciparum", "assay": "GSK_TCMDC: Inhibition of Plasmodium falciparum 3D7 in whole erythrocytes, using parasite LDH activity as an index of growth.", "assay_type": "functional, organism-based", "conditions": "Plasmodium falciparum, 3D7", "units": {"XC50": "nM"}}
{"compound": "CS(=O)(=O)NCCCNCc1ccc(-c2ccc(-c3nc4cc(F)ccc4[nH]3)cc2)cc1", "XC50": 935}
{"compound": "O=c1cc(NCCCCNCc2cccc(C(F)(F)F)c2)[nH]c2ccccc12", "XC50": 789}
{"compound": "O=C(Nc1ccc2c(c1)CCN2C1CCN(Cc2cccc(C(F)(F)F)c2)C1)c1ccco1", "note": "(configuration not stated)", "XC50": 564}
{"compound": "Nc1c2c(nc3ccc(NC(=O)CCCCCc4ccccc4)cc13)CCCC2", "XC50": 438}
{"compound": "COc1ccc(C(=O)Nc2ccc(Cl)cc2C(=O)Nc2ccncc2)cc1", "XC50": 822}
{"compound": "CCCc1c(C(=O)NC2CCC(CN3CCC(c4c[nH]c5ccccc45)CC3)CC2)cnn1-c1c(Cl)cc(Cl)cc1Cl", "note": "(configuration not stated)", "XC50": 820}
{"compound": "CCC(C)c1ccc(-n2c(Nc3ccccc3)nc3cc(S(N)(=O)=O)ccc32)cc1", "note": "(configuration not stated)", "XC50": 1060}
{"compound": "COc1ccc(N2C(N)=NC(N)=NC2(C)C)cc1", "XC50": 113}
{"compound": "Oc1ccc2c(c1NCC1CCCCC1)CCCC2", "XC50": 514}
{"compound": "COc1cccc(C(=O)NC(c2ccc(Cl)cc2Cl)c2cc(Cl)c3cccnc3c2O)c1", "note": "(configuration not stated)", "XC50": 454}
{"compound": "Cc1cccc(OC2CCN(c3ncc(C(=O)NCCCN4CCCC4=O)cc3Cl)CC2)c1", "XC50": 183}
{"compound": "O=C(/C=C/c1ccc(Cl)c(Cl)c1)NCCCCCN1CCC(NC(=O)Nc2cc(Cl)cc(Cl)c2)CC1", "XC50": 722}
{"compound": "O=C(NCCN1CCCC1)c1ccc(-c2ccc(-c3nc4ccccc4[nH]3)s2)cc1", "XC50": 938}
{"compound": "CCN(CCCN1CCCCC1)c1cc(C)nc(Nc2ccc(Cl)cc2C)n1", "XC50": 729}
{"compound": "CCn1c(-c2nonc2N)nc2c(Cl)ncc(O[C@H](CCN)c3ccccc3F)c21", "XC50": 1460}
{"compound": "CCc1c(CCNCCc2cccc(CCNCCc3ccc(OC)c(OC)c3CC)c2)ccc(OC)c1OC", "XC50": 361}
{"compound": "Cc1ccc(O)cc1Nc1ccnc2cc(-c3csc(CN(C)CCN(C)C)n3)ccc12", "XC50": 789}
{"compound": "CC(C)CN1CCN(CCNc2c3ccccc3nc3ccccc23)CC1", "XC50": 818}
{"compound": "CCOc1ccc2nc(C)cc(N/N=C/c3cccc([N+](=O)[O-])c3)c2c1", "XC50": 664}
{"compound": "CCCNCc1ccc(-c2ccc(CN(C(=O)c3nn(-c4ccccc4)nc3C)C3CC3)cc2)nc1", "XC50": 210}
{"compound": "CCOc1ccccc1CCNCC1CCN(CC2CCCCC2)CC1", "XC50": 783}
{"compound": "CCCCCCNCCOc1ccc(-c2nc(-c3ccccc3)c(-c3ccccc3)[nH]2)cc1", "XC50": 669}
{"compound": "CC(=O)Nc1ccc(OCCN(Cc2ccccc2C(F)(F)F)c2ccc(C#N)c(C(F)(F)F)c2)c(Cl)c1", "XC50": 619}
{"compound": "Cc1ccc(CN2CCC(C(=O)Nc3ccc(-c4cc5ccccc5[nH]4)cc3)CC2)o1", "XC50": 1420}
{"compound": "COc1cc(Cc2cnc(N)nc2N)cc(OCCCCCCN)c1OC", "XC50": 190}
{"compound": "O=C1Nc2ccc3ncccc3c2/C1=C/Nc1ccc(Cn2ccnc2)cc1", "XC50": 659}
{"compound": "CCOc1ccc(-c2n[nH]c(C(F)(F)F)c2-c2ccccc2OC)c(O)c1", "XC50": 1140}
{"compound": "Cc1nnsc1C(=O)Nc1cccc(-c2ccc(-c3nc4cc(C(F)(F)F)ccc4[nH]3)cc2)c1", "XC50": 314}
{"compound": "O=C(Nc1ccc2c(c1)CCC2)c1nc(N2CCN(c3ccncc3)CC2)ccc1Cl", "XC50": 1380}
{"compound": "COc1ccc2nccc(N3CCC(NCCNCc4cc5c(cn4)OCCO5)C3)c2n1", "note": "(configuration not stated)", "XC50": 578}
{"compound": "Cc1oc(-c2ccccc2)nc1CCOc1ccc(C[C@H](Nc2ccccc2C(=O)c2ccccc2)C(=O)NCc2ccccn2)cc1", "XC50": 884}
{"compound": "O=C(NCCc1ccccc1)N(Cc1ccccc1-c1cccc(CNCc2ccc3c(c2)OCO3)c1)C1CCN(Cc2ccccc2)CC1", "XC50": 987}
{"compound": "CC1CN(c2cnn(Cc3cccc(NC(=O)Nc4ccc(-c5ccccc5)cc4)c3)c(=O)c2Cl)CC(C)N1", "note": "(configuration not stated)", "XC50": 340}
{"compound": "CCc1c(C(=O)NC2CCC(N3CCC(c4ccccc4C)CC3)CC2)[nH]c2ccc(Br)cc12", "note": "(configuration not stated)", "XC50": 928}
{"compound": "CCN(CC)CCCCCNc1c2ccc(Cl)cc2nc2ccc(OC)cc12", "XC50": 50.6}
{"compound": "O=C(NCc1cccc(C(F)(F)F)c1)[C@@H]1CCCN1C(=O)c1ccc(O)c(-c2ccc(Cl)c(Cl)c2)c1", "XC50": 787}
{"compound": "O=C(/C=C/c1ccc(Cl)c(Cl)c1)N1CCC(CCN2CCC(c3c[nH]c4cc5c(cc34)OCO5)CC2)CC1", "XC50": 732}
{"compound": "O=S(=O)(/C=C/c1ccccc1)N(Cc1ccc(-c2ccc(CNCCOc3ccccc3)cc2)cc1)CC1CCCCN1", "note": "(configuration not stated)", "XC50": 744}
{"compound": "CS(=O)(=O)Cc1ccc(Nc2nccc(-c3c(-c4cccc(C(=O)Nc5c(F)cccc5F)c4)nn4ccccc34)n2)cc1", "XC50": 532}
{"compound": "CCCNCc1ccc(-c2ccc(CN(CCOC)C(=O)c3cnc(C)cn3)cc2)nc1", "XC50": 1250}
{"compound": "O=S(=O)(Nc1cc2c(cc1O)CCNCC2)c1ccc(-c2ccc(Cl)cc2)cc1", "XC50": 980}
{"compound": "Cc1cc(C(=O)CN2C(=O)NC3(CCOc4ccccc43)C2=O)c(C)n1Cc1ccc(F)cc1", "note": "(configuration not stated)", "XC50": 881}
{"compound": "Cc1c(NC(=O)COc2ccc(Cl)cc2C(=O)c2cc(F)cc(C(F)(F)F)c2)ccc2ncsc12", "XC50": 1020}
{"compound": "CN(c1ccc(C(=O)N[C@@H](CCC(=O)O)C(=O)O)cc1)S(=O)(=O)c1ccc2nc(N)[nH]c(=O)c2c1", "XC50": 149}
{"compound": "O=C(NC(=O)c1ccccc1)NC1CCN(c2ccnc3cc(Cl)ccc23)C1", "note": "(configuration not stated)", "XC50": 584}
{"compound": "CCCCc1cc(Cc2cnc(N)nc2N)cc(OC)c1OC", "XC50": 1040}
{"compound": "Fc1cccc(Nc2nc(NCc3ccc(OCc4ccccc4)cc3)nc(Nc3cccc(F)c3)n2)c1", "XC50": 1180}
{"compound": "c1ccc(C2CCC(N3CCC(N4CCCC4)CC3)CC2)cc1", "note": "(configuration not stated)", "XC50": 671}
{"compound": "Cc1cc(=NN=Cc2ccc(Cl)cc2)c2ccc(F)cc2[nH]1", "XC50": 757}
{"compound": "O=C(c1cc(OC(F)(F)F)ccc1O)N1CCN(c2ccccc2)CC1", "XC50": 1050}
{"compound": "C=C[C@H]1CN2CC[C@H]1C[C@H]2[C@H](O)c1ccnc2ccc(OC)cc12", "XC50": 426}
{"compound": "CCn1c(-c2nonc2N)nc2c(-c3cccc(NC(=O)Nc4cccc(C(F)(F)F)c4)c3)ncc(OCCCN)c21", "XC50": 969}
{"compound": "O=C(Cc1cccc(Cl)c1)Nc1cccc(-c2c[nH]c3nc(Nc4cccc(O)c4)ncc23)c1", "XC50": 731}
{"compound": "O=C(Cc1ccc([N+](=O)[O-])cc1)N1CCc2cc3nccc(N4CCN5CCC[C@@H]5C4)c3cc21", "XC50": 843}
{"compound": "COc1cccc(C(O)CNc2ccnc(Nc3cccc(-c4csc(C)n4)c3)n2)c1", "note": "(configuration not stated)", "XC50": 786}
{"compound": "CCN(CC)CCNC(=O)c1ccc(NC(=O)c2oc3c(Cl)cccc3c2C)cc1", "XC50": 703}
{"compound": "COC(=O)c1cccc(CNCc2ccc(-c3ccc(-c4nc5cc(C(F)(F)F)ccc5[nH]4)s3)cc2)c1", "XC50": 157}
{"compound": "O=C(Nc1cccc(C(F)(F)F)c1)Nc1ccc(Cl)c(Cl)c1", "XC50": 735}
{"compound": "FC(F)(F)c1cccc(Nc2nc3nonc3nc2NC2C3CC4CC(C3)CC2C4)c1", "note": "(configuration not stated)", "XC50": 661}
{"compound": "COCCNCc1cccc(-c2ccccc2CN(C(=O)Nc2ccccc2)C2CCN(Cc3ccccc3)CC2)c1", "XC50": 914}
{"compound": "Cc1cccc2nc(-c3ccc(-c4cccc(NC(=O)Cc5c[nH]cn5)c4)cc3)[nH]c12", "XC50": 903}
{"compound": "N#Cc1ccc2c(c1)CN(C1CCC(NC(=O)c3cc(-c4ccc(Cl)cc4)cs3)CC1)CCC2", "note": "(configuration not stated)", "XC50": 956}
{"compound": "CCCc1cc(N2CCC(N3CCCC3)CC2)nc(Nc2ccc(OC)cc2)n1", "XC50": 807}
{"compound": "O=c1cc(NCCCNC2CCOc3c(I)cc(Cl)cc32)[nH]c2ccccc12", "note": "(configuration not stated)", "XC50": 832}
{"compound": "O=C(Nc1ccc(-c2csc(-c3nc4ccccc4[nH]3)c2)cc1)Nc1ccc(F)c(F)c1F", "XC50": 330}
{"compound": "O=C(C=Cc1ccc(Cl)c(Cl)c1)NCCCCCN1CCC(CCCNS(=O)(=O)c2ccc(F)cc2)CC1", "XC50": 1020}
{"compound": "Nc1nc(N)c2nc(C3CC=CCC3)c(N)nc2n1", "note": "(configuration not stated)", "XC50": 162}
{"compound": "Cc1cccc2nc(-c3ccc(-c4ccc(CN5CCCCC5)cc4)s3)[nH]c12", "XC50": 521}
{"compound": "Cc1cc(OCCCN2CCC(NS(=O)(=O)c3ccc(Cl)c(Cl)c3)CC2)c2ccccc2n1", "XC50": 897}
{"compound": "CC(Cc1ccc(CNC(=O)NCc2ccc(CC(C)NCCc3cccc(Cl)c3)cc2)cc1)NCCc1cccc(Cl)c1", "note": "(configuration not stated)", "XC50": 685}
{"compound": "O=c1cc(NCCCNCc2cc(Br)cs2)[nH]c2ccccc12", "XC50": 1060}
{"compound": "Nc1nc(N)c2c(ccc3c2ccn3Cc2cccc3ccccc23)n1", "XC50": 3.2}
{"compound": "Cc1cccc(Nc2nc(NCCCCN)nc3cc[nH]c(=O)c23)c1", "XC50": 733}
{"compound": "CCOC(=O)N1CCN(CCCCCNc2cc(C)nc(NC(=N)Nc3ccc(Cl)cc3)n2)CC1", "XC50": 149}
{"compound": "Cn1c(Cc2ccccc2)nnc1Sc1ccc(C#N)c([N+](=O)[O-])c1", "XC50": 907}
{"compound": "CCCCN1CCCC[C@H]1[C@@H](O)c1ccnc2ccc(OCC)cc12", "XC50": 773}
{"compound": "O=C(Nc1ccc(Cl)cc1)c1ccc(CN2CCCN(Cc3cccc(Cl)c3)CC2)cc1", "XC50": 826}
{"compound": "Cc1cc(Nc2cccc(C(F)(F)F)c2)nc(NCc2ccccc2)n1", "XC50": 148}
{"compound": "O=[N+]([O-])c1ccccc1C=NN=c1cc[nH]c2ccccc12", "XC50": 863}
{"compound": "OCCN1CCN(Cc2ccc(-c3ccc(-c4nc5ccccc5[nH]4)cc3)cc2)CC1", "XC50": 616}
{"compound": "CCCNC(=O)c1cncc(-c2ccc(CNCCCc3ccccc3)cc2)c1", "XC50": 688}
{"compound": "CCOC(=O)CN(c1ccc(Br)cc1OCCOc1cc(Br)ccc1N(CC(=O)OCC)C(C)C(=O)OCC)C(C)C(=O)OCC", "note": "(configuration not stated)", "XC50": 806}
{"compound": "Fc1ccc2[nH]c(-c3ccc(-c4ccc(CN5CCC(CCN6CCCCC6)CC5)cc4)s3)nc2c1", "XC50": 142}
{"compound": "Cc1cc2ncc(C(N)=O)c(Nc3ccc(N4CCOCC4)cc3)c2cc1S(C)(=O)=O", "XC50": 675}
{"compound": "O=C(Nc1cccc(F)c1)c1ccc(C(=O)NC2CCN(CC3CCCCC3)C2)cc1", "note": "(configuration not stated)", "XC50": 929}
{"compound": "Fc1cccc(COc2ccc(Nc3ncnc4sc(C#C[C@H]5CC[C@H](CNCC(F)(F)F)N5)cc34)cc2Cl)c1", "XC50": 1420}
{"compound": "CCOC(=O)C(C)(C)Oc1ccc(CN(Cc2ccc(CC(C)C)cc2)C(=O)Nc2ccc(F)cc2F)c(OC)c1", "XC50": 238}
{"compound": "COc1ccc(CCN(C)CCCOc2ccc(NC(=O)COc3cccc4sc5ccccc5c(=O)c34)cc2)cc1OC", "XC50": 459}
{"compound": "COc1ccc(C(=O)NCc2ccccc2-c2ccc(C(C)(C)C)cc2)cc1O", "XC50": 99.6}
{"compound": "COc1ccc(C2C(C(=O)Nc3cc(OC)c(OC)c(OC)c3)c3cc(OC)c(OC)cc3C(=O)N2C)cc1", "note": "(configuration not stated)", "XC50": 801}
{"compound": "O=C(Nc1cccc(-c2cccc(-c3nc4cc(C(F)(F)F)ccc4[nH]3)c2)c1)Nc1ccc(F)c(F)c1F", "XC50": 119}
{"compound": "O=C1c2ccc([N+](=O)[O-])cc2C(=O)N1c1ccc2[nH]ncc2c1", "XC50": 1150}
{"compound": "O=C(/C=C/c1ccc(Cl)c(Cl)c1)N1CCN(C(=O)Nc2ccc(C(F)(F)F)cc2)CC1", "XC50": 666}
{"compound": "COc1ccc(-c2cncc3ccc(C(=O)NCc4ccncc4)nc23)cc1", "XC50": 736}
{"compound": "O=C(Nc1ccc(Cl)c(-c2nc3ccccc3[nH]2)c1)c1ccc(-c2ccc(Cl)cc2)o1", "XC50": 785}
{"compound": "N=C(N)NC(=O)Nc1cc(Br)c(Cl)c(C(F)(F)F)c1", "XC50": 758}
{"compound": "O=S(=O)(NCCN1CCCC1)c1ccc(-c2cccc(CNCCc3cccs3)c2)s1", "XC50": 705}
